Measurements taken from PMC11120408 (Foods, 2024).
Like-named read-outs stand apart in the source and are kept apart here.

Experiments:
[1] = biological target: T1, α-glucosidase (α-Glu) (Saccharomyces cerevisiae, UniProt P53341); assay: Fluorescence quenching / binding of AK/MS to α-Glu; settings: for Kq (quenching rate constant): Ksv/τ0; for Kd: read-out: Ka (binding constant) (converted); for fluorescence quenching mechanism: Stern–Volmer analysis; for ΔH^0 / ΔS^0: van't Hoff, 298–310 K; for decrease of synchronous fluorescence intensity of α-Glu: Δλ = 60 nm (Trp); for reduction of three-dimensional fluorescence intensity of Peak 1 of α-Glu: α-Glu 2.0 μM, inhibitor 13.0 μM
T1 construct: purchased Shanghai Yuanye Bio-Technology Co., Ltd
T1 sequence (P53341 whole entry): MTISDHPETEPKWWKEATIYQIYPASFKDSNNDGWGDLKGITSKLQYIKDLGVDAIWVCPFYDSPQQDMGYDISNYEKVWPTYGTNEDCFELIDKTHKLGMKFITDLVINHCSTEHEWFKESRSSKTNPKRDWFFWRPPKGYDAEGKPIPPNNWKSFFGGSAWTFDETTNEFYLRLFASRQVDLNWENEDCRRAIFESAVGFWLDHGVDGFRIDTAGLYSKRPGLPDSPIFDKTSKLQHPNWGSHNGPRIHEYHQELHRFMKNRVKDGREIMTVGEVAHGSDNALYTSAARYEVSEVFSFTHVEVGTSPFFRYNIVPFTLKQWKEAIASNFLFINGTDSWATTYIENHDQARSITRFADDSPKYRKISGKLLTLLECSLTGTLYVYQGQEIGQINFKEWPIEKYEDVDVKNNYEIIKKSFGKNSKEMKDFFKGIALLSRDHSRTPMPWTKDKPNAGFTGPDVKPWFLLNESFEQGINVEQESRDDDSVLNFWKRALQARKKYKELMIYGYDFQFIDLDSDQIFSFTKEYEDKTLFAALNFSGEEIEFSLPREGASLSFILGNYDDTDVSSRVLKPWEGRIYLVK
Procedure: The fluorescence spectrum of α-Glu was acquired in the spectral region of 300–450 nm on an F97 Pro spectrofluorometer (Lengguang Tech., Shanghai, China) with both excitation and emission slits of 10 nm, when excited at 280 nm. The solution of α-Glu (2.0 μM) was titrated by successively adding different amounts of AK (final concentrations of 4.0, 8.0, 12.0, 16.0, 20.0, 24.0 and 28.0 μM, respectively) or MS (final concentrations of 1.0, 3.0, 5.0, 7.0, 9.0, 11.0 and 13.0 μM, respectively) at 298, 304, and 310 K.
The synchronous fluorescence spectrum was recorded from 270 to 330 nm, when the interval of the emission and excitation wavelength (Δλ = λem − λex) constant was fixed at 15 and 60 nm, respectively.
The three-dimensional fluorescence spectra of α-Glu with or without AK/MS were measured at 298 K. The excitation wavelength range was from 200 to 360 nm, and the emission was collected from 270 to 330 nm, together with an increment of 10 nm. The final concentrations of α-Glu, AK, and MS were 2.0, 13.0, and 13.0 μM, respectively.
All the samples were thoroughly mixed and kept for 6 min before detection, and the inner-filter effect was eliminated to correct the obtained fluorescence data, referring to our previous report.
Thus, the relative mechanism was investigated through the Stern–Volmer equation:(6) F0/F=1+Ksv[Q]=1+kqτ0[Q] where F0 and F are the fluorescence intensities of α-Glu without and with inhibitors, respectively. Ksv, [Q], kq, and τ0 represent the Stern–Volmer quenching constant, the concentration of inhibitor, the biomolecule quenching rate constant, and the average lifetime of protein in the absence of inhibitors, respectively. Specifically, Ksv is determined by the plot of F0/F against [Q], τ0 is about 10^−8 s, and kq is equal to Ksv/τ0.
The binding constants (Ka) of the α-Glu-AK and α-Glu-MS systems were evaluated by the following equation:(7) logF0−F/F=nlogKa−nlog1/[Qt]−(F0−F)[Pt]/F0 where [Pt] and [Qt] represent the total concentrations of α-Glu and the inhibitor, respectively. n is the number of binding sites.
To better reveal the binding mechanism of AK/MS to α-Glu, the critical forces between them were also explored. Typically, the binding forces between proteins and ligands could be estimated by the calculation of the thermodynamic parameters using the following equations:(8) logKa=−ΔH^0/2.303RT+ΔS^0/2.303R (9) ΔG^0=ΔH^0−TΔS^0 where T represents the absolute temperature (in Kelvin), and R is the universal gas constant (8.314 J mol^−1 K^−1). ΔH^0 and ΔS^0 stand for the enthalpy change and entropy change, respectively, and they could be calculated by the slope and the y-axis intercept in the linearly fitted plot between lnKa and 1/T (Figure S4A,B). Then, the free energy change (ΔG^0) is obtained according to Equation (9).

[2] = biological target: T1, α-glucosidase (α-Glu); assay: biochemical; type: biochemical; settings: for inhibition mode against α-Glu: L-B plots; for Ki: read-out: Ki (inhibition constant, binding to enzyme); for reversibility of inhibition: plots of v vs α-Glu concentration
Procedure: The same procedure in Section 2.2.1 was used to investigate the inhibition mechanisms of AK and MS against α-Glu. Using the Michaelis–Menten equation, inhibitors with various concentrations were utilized to evaluate the kinetic parameters (Km and Vmax). Moreover, the values of two kinetic constants Ki and Kis were determined using the Lineweaver–Burk (L-B) plots. The L-B equation could be expressed in a double reciprocal form for the mixed-type inhibition mechanism analysis:(1) 1/v=Km/Vmax1+I/Ki1/S+1/Vmax1+I/Kis
Km and Vmax denote the Michaelis–Menten constant and the maximum reaction velocity, respectively. [I] and [S] are the concentrations of the inhibitor and substrate, respectively. Ki and Kis represent the inhibition constants to bind with the enzyme and the enzyme–substrate complex, respectively. The secondary plots of the Y-intercept versus [I] are linearly fitted.

[3] = biological target: T1, α-glucosidase (α-Glu); assay: biochemical; settings: Cα-Glu = 0.10 U/mL, CpNPG = 2.08 mM, pH 6.8, 310 K; read-out: IC50 against α-Glu
Procedure: The stock solutions (2.0 mM) of AK/MS were prepared by dissolving them in dimethyl sulfoxide, respectively. […] The inhibitory activities of AK/MS against α-Glu were assessed in vitro according to the previous method with a slight modification. Firstly, 50 μL of α-Glu and different doses of inhibitors were mixed for 1 h at 310 K. Fifty microliter of pNPG (5.0 mM) was then put in to activate the reaction. After a 30 min incubation, the Na2CO3 solution (0.2 M, 100 μL) was added to stop the reaction. The absorbance of p-nitrophenol converted from pNPG was monitored at 405 nm on an Infinite® M200 PRO plate reader (Tecan, Durham, NC, USA).

[4] = Solubility and light sensitivity (statement, no method)
[5] = tested on: α-Glu; settings: read-out: IC50 against α-Glu, cited from earlier work
[6] = mixed-type, L-B secondary plots

| SMILES | Ksv (Stern–Volmer quenching constant) ([1]; 298 K) | Kq (quenching rate constant) ([1]; 298 K) | Kd ([1]; 298 K) | Ksv (Stern–Volmer quenching constant) ([1]; 304 K) | ΔG^0 ([1]; 304 K) | Kq (quenching rate constant) ([1]; 304 K) | Kd ([1]; 304 K) | Ksv (Stern–Volmer quenching constant) ([1]; 310 K) | ΔG^0 ([1]; 310 K) | Kq (quenching rate constant) ([1]; 310 K) | Kd ([1]; 310 K) | fluorescence quenching mechanism [1] | ΔH^0 [1] | ΔS^0 [1] | decrease of synchronous fluorescence intensity of α-Glu [1] | reduction of three-dimensional fluorescence intensity of Peak 1 of α-Glu ([1]; 298 K) | inhibition mode against α-Glu [2] | Ki [2, 6] | reversibility of inhibition [2] | IC50 [3] | also measured |
| --- | --- | --- | --- | --- | --- | --- | --- | --- | --- | --- | --- | --- | --- | --- | --- | --- | --- | --- | --- | --- | --- |
| C/C=C/C1=CC2=C(CO1)C(=O)[C@]1(C)OC(=O)[C@H](C(=O)CCCCCCC)[C@H]1C2 [AK, ankaflavin] | 2.23 ± 0.12 10^4 M^−1 | 2.23 ± 0.12 10^12 M^−1s^−1 | 58.1 µM | 2.08 ± 0.07 10^4 M^−1 | -2.488 ± 0.0813 kcal/mol | 2.08 ± 0.07 10^12 M^−1s^−1 | 63.3 µM | 1.91 ± 0.08 10^4 M^−1 | -2.519 ± 0.0526 kcal/mol | 1.91 ± 0.08 10^12 M^−1s^−1 | 69.4 µM | static quenching | -0.841 ± 0.0048 kcal/mol | 22.66 ± 0.84 J mol^−1K^−1 | 59.4% | 24.9% | mixed type | 57.8 ± 5.89 µM | reversible inhibitors | 127 ± 2.5 µM | Vmax of α-Glu ([2]; inhibitor 30 μM): 4.02 ± 0.07 µM/min; Vmax of α-Glu ([2]; inhibitor 40 μM): 3.86 ± 0.04 µM/min; Kis (inhibition constant, binding to enzyme–substrate complex) [2, 6]: 3.45 ± 0.06 µM |
| C/C=C/C1=CC2=C(CO1)C(=O)[C@]1(C)OC(=O)[C@H](C(=O)CCCCC)[C@H]1C2 [MS, monascin] | 2.09 ± 0.02 10^4 M^−1 | 2.09 ± 0.02 10^12 M^−1s^−1 | 70.9 µM | 1.94 ± 0.04 10^4 M^−1 | -2.536 ± 0.0048 kcal/mol | 1.94 ± 0.04 10^12 M^−1s^−1 | 76.3 µM | 1.58 ± 0.03 10^4 M^−1 | -2.562 ± 0.0072 kcal/mol | 1.58 ± 0.03 10^12 M^−1s^−1 | 80.6 µM | static quenching | -1.18 ± 0.0239 kcal/mol | 18.68 ± 3.20 J mol^−1K^−1 | 33.9% | 20.0% | mixed type | 298 ± 18.1 µM | reversible inhibitors | 302.6 ± 2.5 µM | sensitivity to light [4]: sensitive to light; solubility [4]: poor; Vmax of α-Glu ([2]; inhibitor 100 μM): 1.85 ± 0.04 µM/min; Vmax of α-Glu ([2]; inhibitor 200 μM): 1.76 ± 0.08 µM/min |
| C[C@H]1O[C@H](O[C@H]2[C@H](O)[C@@H](O)[C@@H](O[C@H]3[C@H](O)[C@@H](O)C(O)O[C@@H]3CO)O[C@@H]2CO)[C@H](O)[C@@H](O)[C@@H]1N[C@H]1C=C(CO)[C@@H](O)[C@H](O)[C@H]1O (stereo partly shown) [acarbose] | – | – | – | – | – | – | – | – | – | – | – | – | – | – | – | – | – | – | – | – | IC50 ([5]; previous work): 376 ± 4.4 µM |
| O=c1cc(-c2ccc(O)cc2)oc2cc(O)cc(O)c12 [apigenin] | – | – | – | – | – | – | – | – | – | – | – | – | – | – | – | – | – | – | – | – | IC50 [5]: 10.5 ± 0.05 µM |
